From patent US20170009093A1, “LIQUID COMPOSITION, PIGMENT DISPERSION LIQUID, AND INK JET RECORDING AQUEOUS INK COMPOSITION” (Seiko Epson Corporation, priority 2015, published 2017)

Assay: water-octanol partition coefficient (log P), OECD Test Guideline 107
Format: physicochemical
Settings: not given
Description: The water-octanol partition coefficient, or log P value, is a value defined by OECD Test Guideline 107. […] The constituents shown in Table 1 were as below, and the log P values in Table 1 were determined in accordance with OECD Test Guideline 107. • (1) First solvents

| Compound | log P (water-octanol partition coefficient) |
| --- | --- |
| CCCCOCCOCCO [butyl diglycol] | 0.56 |

Same assay, conditions: OECD Test Guideline 107

| Compound | logP | log P (water-octanol partition coefficient) |
| --- | --- | --- |
| CCC(O)CO (stereo not shown) [1,2-butanediol] | -0.34 |  |
| COCCOCCOCCOCCO [Methyl tetraglycol, reference compound] |  | −1.87 |
| dipropylene glycol monomethyl ether |  | −0.46 |

Same assay, conditions: octanol/water; OECD Test Guideline 107

| Compound | logP |
| --- | --- |
| OCC(O)COCc1ccccc1 (stereo not shown) [3-benzyloxy-1,2-propanediol] | 0.88 |
| OCC(CO)(CO)COc1ccccc1 [2-hydroxymethyl-2-phenoxymethyl-1,3-propanediol] | 1.69 |
| CCCCC(O)CO (stereo not shown) [1,2-hexanediol] | 0.7 |
| CC(O)(CO)COc1ccccc1 (stereo not shown) [2-methyl-3-phenoxy-1,2-propanediol] | 1.1 |
| COc1ccc(COCC(O)CO)cc1 (stereo not shown) [3-(4-methoxybenzyloxy)-1,2-propanediol] | 0.8 |
| Cc1cccc(OCC(O)CO)c1 (stereo not shown) [3-(3-methylphenoxy)-1,2-propanediol] | 1.21 |
| CCCCCC(O)CO (stereo not shown) [1,2-heptanediol] | 1 |
| CC(C)(C)C(O)CO (stereo not shown) [3,3-dimethylbutane-1,2-diol] | -0.11 |
| OCC(O)COc1ccccc1 (stereo not shown) [phenyl glyceryl ether] | 0.75 |
